Test system: Plasmodium falciparum
Assay: GSK_TCMDC: Inhibition of Plasmodium falciparum 3D7 in whole erythrocytes, using parasite LDH activity as an index of growth.
Format: functional, organism-based
Conditions: Plasmodium falciparum, 3D7

SMILES	XC50
Nc1ncc(-c2cn[nH]c2)cc1-c1nc2ccc(Cl)cc2[nH]1	799 nM
COc1ccc(CN2CCCN(Cc3cccc(NC(=O)c4ccc5ccccc5c4)c3)CC2)cc1	1000 nM
O=c1cc(NCCCNC(CNCCc2ccccc2)c2cc(Br)cc(Br)c2)[nH]c2ccccc12 (configuration not stated)	864 nM
O=C(NCCN1CCN(S(=O)(=O)c2ccc(OC3CCNCC3)c(Br)c2)CC1)c1ccc(Cl)c(Cl)c1	891 nM
FC(F)(F)c1cccc(CNCCCCCNCc2ccc(Cl)cc2)c1	1030 nM
Cc1cc(C2CCN(CCCCNC(=O)c3ccc(NC(=O)c4ccc(Cl)cc4)cc3)CC2)c(C)cc1OCc1ccccn1	801 nM
Cc1noc(-c2ccc(NC[C@@H](C)NC[C@H](O)c3cccc(Cl)c3)cc2)n1	756 nM
CCC1CCCCN1S(=O)(=O)c1ccc(NC(=O)c2cc(C)on2)cc1 (configuration not stated)	1240 nM
O=C(NOCc1ccccc1)c1cc(Cl)ccc1O	1100 nM
Oc1ccc(Cl)cc1Nc1nc(C(F)(F)F)nc2ccccc12	938 nM
CN1CCN(CCCN(Cc2ccc(-c3ccc(CNCc4ccc5c(c4)OCO5)cc3)cc2)C(=O)CCC2CCCC2)CC1	952 nM
CNC(=O)NC1CCN(Cc2c(-c3cccs3)nc3ccccc3c2C(=O)N[C@@H](C)C2CCCCC2)CC1	219 nM
N#Cc1ccc(-c2ccc(C(=O)NCCCCN3CCC(c4ccc5c(c4OCc4ccccn4)CCCC5)CC3)cc2)cc1	824 nM
Cc1cccc2nc(-c3cccc(-c4cccc(NC(=O)c5cnn6cccnc56)c4)c3)[nH]c12	671 nM
COc1cc(C(=O)N2CCN(C(C)C)CC2)ccc1CN(C)CCCN1CCN(c2cccc(Cl)c2Cl)CC1	776 nM
O=C1CN(C(=O)CCC2CCCC2)C(c2ccc(F)cc2)c2cc(F)ccc2N1 (configuration not stated)	168 nM
CN(C)/C(=N/C(=N)Nc1ccc(Cl)cc1)NCCCCCCN/C(=N\C(=N)Nc1ccc(Cl)cc1)N(C)C	533 nM
CCCCCCC(N)c1ccc(OCCCOc2ccc(C(N)CCCCCC)cc2)cc1 (configuration not stated)	1140 nM
Cc1cc(N(C)C2CCN(C)CC2)nc(Nc2ccc(Cl)cc2)n1	290 nM
CCN1CCC(NCc2ccc(-c3ccc(Cl)s3)cc2)CC1	939 nM
C[C@H]1CN(Cc2cccc(-c3cc(CNC(=O)c4cccc(CC5CCN(C)CC5)c4)ccc3F)c2)CCN1C	1090 nM
CCC(CC)CN1C(=O)C(C)(c2ccccc2)N=C1N (configuration not stated)	1060 nM
COc1cc(OC)c2c(C)cc(NCCCn3ccnc3)nc2c1	804 nM
CCCCCCn1c2c(c(=N)c3c1CCC3)CCC2	178 nM
OC(CN(Cc1ccccc1)Cc1ccccc1)Cn1c2ccc(Cl)cc2c2cc(Cl)ccc21 (configuration not stated)	995 nM

SMILES	XC50
COc1ccc(CNC(=O)c2cnc3c(O)cccc3c2Nc2cccc(NC(=O)c3ccc(Cl)c(Cl)c3)c2)cc1	604 nM
COc1ccc(N2CCc3c(-c4cccc5cnccc45)cc(C)nc32)c(C)c1	655 nM
COc1ccc2nccc([C@@H](O)CN3CCC(NC(=O)c4cc5ccccc5[nH]4)CC3)c2c1	969 nM
CC(C)N1CCC(N(Cc2ccc(-c3ccc(C(F)(F)F)cc3)cc2)C(=O)Cn2c(SCc3cccc(F)c3F)nc(=O)c3ccccc32)CC1	1050 nM
CCc1c(CCNCCCCCCNCCc2ccc([N+](=O)[O-])cc2)ccc(O)c1O	783 nM
COc1cccc(CNC(=O)c2cccc(-c3ccc(CN4CCC(N5CCCC5)CC4)cc3)n2)c1	1790 nM
CC(C)CCN(Cc1cncn1Cc1cccc(Cl)c1)C(=O)c1cncc(-c2ccccc2)c1	762 nM
CC1=C(C(=O)Nc2cc3cn[nH]c3cc2F)C(c2cccc(NS(C)(=O)=O)c2)CC(=O)N1 (configuration not stated)	434 nM
O=C(Nc1ccc(I)cc1)N1CCc2sccc2C1CN1CCCCC1 (configuration not stated)	1200 nM
COc1ccc2nccc(N3CCC(NCCNS(=O)(=O)c4ccc5c(c4)NC(=O)CS5)C3)c2n1 (configuration not stated)	901 nM
CC[C@H](C)CNC(=O)c1ccnc(-c2cccc(CN(C)C3CCN(C)CC3)c2)c1	898 nM
CCOc1cc(C(=O)N[C@@H](Cc2ccccc2)[C@H](O)CNC(C)(C)c2cccc(OC)c2)cc(N2CCCS2(=O)=O)c1	224 nM
Fc1c(CNCC2CCN(CC3CCCCC3)CC2)cccc1C(F)(F)F	900 nM
COc1cccc(C2(c3cccc(OC)c3)N=C(N)N(CCCc3ccccc3)C2=O)c1	260 nM
COc1ccc(C2CC(=O)C3=C(C2)NC(C)=C(C(=O)OC(C)C)C3c2ccccc2F)cc1OC (configuration not stated)	61.6 nM
COc1ccc(C2CCN(C#N)C2)cc1OC1CCCC1 (configuration not stated)	228 nM
Cc1c2ccc(N(C)c3ccnc(Nc4ccc5c(c4)nc(NC(C)C)n5C)n3)cc2nn1C	159 nM
COc1cccc2cc(C(=O)N[C@@H](CC(C)C)C(=O)N[C@H](/C=N/NC(=O)c3ccccc3)Cc3c[nH]cn3)oc12	130 nM
O=C(Cn1c(CCc2cccc(F)c2F)cc(=O)c2cccnc21)N(CCn1ccnc1)Cc1ccc(-c2ccc(C(F)(F)F)cc2)cc1	672 nM
Cc1cc(OCCCN2CCCCC2C)ccc1NC(=O)COc1ccc(Cl)cc1C(=O)c1cc(Cl)cc(C#N)c1 (configuration not stated)	981 nM
COc1cc(C(=O)NC2CCN(Cc3ccccc3)CC2)ccc1-c1nc2c(Cl)cc(C(F)(F)F)cc2[nH]1	670 nM
Oc1cc(Nc2ccnc3cc(-c4ccc(CN5CCCCC5)o4)ccc23)c(Cl)cc1F	122 nM
O=C(CCc1ccco1)NC1CCN(CC2(c3ccc(Cl)cc3)CCC2)CC1	1450 nM
COc1ccc(CN2CCC(N3CC(c4ccccc4)(c4ccccc4)OCC3=O)C2)c(O)c1 (configuration not stated)	931 nM
Oc1cccc(Nc2ccnc3cc(-c4cc5ccccc5o4)ccc23)c1	763 nM

SMILES	XC50
O=C(/C=C/c1ccc(Cl)c(Cl)c1)NCCCCCN1CCC(NC(=O)Nc2ccc3c(c2)OCO3)CC1	713 nM
Cc1nc2cc(/C=C/C(=O)NC3CCC(CCN4CCc5ccc(C#N)cc5CC4)CC3)ccc2[nH]1 (configuration not stated)	1140 nM
OCCC1CCN(Cc2ccc(-c3ccc(-c4nc5ccccc5[nH]4)cc3)cc2)CC1	768 nM
c1cc(CNCCc2ccncc2)cc(-c2ccc(-c3nc4ccccc4[nH]3)cc2)c1	146 nM
CC(C)(C)OC(=O)NCC(=O)N(Cc1ccccc1)Cc1ccccc1	124 nM
COc1ccc(C2(CNCC(O)c3cccc([N+](=O)[O-])c3)CCCC2)cc1OC (configuration not stated)	891 nM
CC(C)(C)c1ccc2[nH]c(-c3ccc(C(=O)NC4CCN(Cc5ccccc5)CC4)s3)nc2c1	359 nM
Cc1ccc2c(=NN=CC=Cc3ccccc3)cc(C)[nH]c2c1	1120 nM
Cc1nc(-c2nc(N3CCOCC3)ncc2-c2ccsc2)sc1C	315 nM
CCCNc1nc(Nc2ccccc2C)nc2ccccc12	887 nM
CNc1ccc(CNCc2cccc(-c3ccc(-c4nc5cc(C(F)(F)F)ccc5[nH]4)cc3)c2)cc1	112 nM
CCN(C)C(=O)n1ncc2c3c(N)nc(N)nc3ccc21	176 nM
CCCNCc1ccc(-c2ccc(CN(CCOC)C(=O)COc3ccccc3Cl)cc2)nc1	912 nM
CCOc1ccc(-c2nc(NC(=O)Cc3cccc(OC)c3)sc2C)cc1	730 nM
COc1cc(NC(=O)CCCCCCCN2CCN(C)CC2)c2ncccc2c1	611 nM
Fc1cccc(COc2ccc(Nc3ncnc4sc(C#CCNC5CCCC5)cc34)cc2Cl)c1	782 nM
Fc1ccc(-c2nc(NCc3cccc(C(F)(F)F)c3)nn2-c2cccc(C(F)(F)F)c2)cc1C(F)(F)F	1050 nM
COCCN1CCN(Cc2ccc(-c3cccc(-c4nc5ccccc5[nH]4)c3)cc2)CC1	1110 nM
CN(C)c1cccc(NC(=O)NC2N=C(c3ccccc3)c3ccccc3N(CC(=O)N(C)c3ccccc3)C2=O)c1 (configuration not stated)	947 nM
COc1ccc(C2C(C(=O)OC3CCCC3)=C(C)NC3=C2C(=O)CCC3)cc1Br (configuration not stated)	593 nM
Cc1cccc2nc(-c3ccc(-c4ccc(NC(=O)c5cncn5C)cc4)s3)[nH]c12	670 nM
Cc1cc(=NN=Cc2ccccc2Cl)c2cc(F)ccc2[nH]1	750 nM
CCCCCC(C)C(C)c1cc(O)c2c(c1)OC(C)(C)CC2(O)c1ccccn1 (configuration not stated)	741 nM
CN(C)c1ccc(C2(c3ccccc3)N=C(N)N(CCCc3ccccc3)C2=O)cc1 (configuration not stated)	971 nM
CCN(CC)CCNc1c2ccc(Cl)cc2nc2ccc(OC)nc12	736 nM

SMILES	XC50
COc1cc(Nc2nccc(N3CCC(NC(=O)C4COc5ccccc5O4)C3)n2)cc(OC)c1OC (configuration not stated)	924 nM
Clc1ccc(CCNCCCCCCNCCc2ccc3c(c2)OCO3)cc1	1730 nM
CC(=O)N/N=C/[C@H](CCc1ccccc1)NC(=O)[C@H](CC(C)C)NC(=O)c1ccc(F)cc1	692 nM
O=[N+]([O-])c1ccc2ncnc(Nc3ccc(F)c(Cl)c3)c2c1	709 nM
O=C(NCCCNc1nc2ccccc2[nH]1)c1cccc(OC(F)(F)F)c1	566 nM
O=C(Nc1ccccc1)Nc1cccc(-c2nn3c(OCCN4CCCC4)cccc3c2-c2ccncc2)c1	404 nM
CC(C)c1ccc(NC(=O)c2ccc(C(=O)NC3CCN(CC4CCCCC4)C3)cc2)cc1 (configuration not stated)	792 nM
CC(C)CNCc1ccc(-c2cccc(CN(C(=O)Nc3ccccc3)C3CCN(Cc4ccccc4)CC3)c2)cc1	410 nM
CCN(CCCN1CCCCC1)c1cc(C)nc(Nc2ccc(C(F)(F)F)cc2)n1	374 nM
CN(CCCCCNC(=O)/C=C/c1ccc(Cl)c(Cl)c1)CCCCc1c[nH]c2ccccc12	1080 nM
CCc1cn2c3c(cc(C(=O)N[C@@H](Cc4cc(F)cc(F)c4)[C@H](O)CNC4CCOCC4)cc13)N(C)S(=O)(=O)CC2	33.6 nM
CCCCCc1cnc2nc(N)nc(N)c2c1C	211 nM
O=C(NCCCCCN1CCC(c2c[nH]c3ccccc23)CC1)Nc1ccc(Cl)cc1Cl	716 nM
CN(CCON1C(=N)N=C(N)NC1(C)C)c1ccccc1	19.4 nM
COc1cccc2c(N/N=C/c3cccc([N+](=O)[O-])c3)ccnc12	748 nM
Cc1cc(NC(=O)NCCN2CCC(NS(=O)(=O)c3cccc(Br)c3)C2)c2ccccc2n1 (configuration not stated)	606 nM
N#Cc1ccc(-c2ccc(C(=O)NCCCCN3CC=C(c4ccc5c(c4OCC4CC4)CCCC5)CC3)cc2)cc1	623 nM
COc1ccc(C(C(=O)NC2CCN(C[C@H](O)c3ccnc4ccc(OC)cc34)CC2)N2CCN(c3ccc([N+](=O)[O-])cc3)CC2)cc1 (some centres not stated)	232 nM
COc1ccc(CN2CCC(NCc3cccc(-n4ccnc4)c3)CC2)cc1	629 nM
O=C(Nc1ccc(-c2csc(-c3nc4ccccc4[nH]3)c2)cc1)Nc1ccc(F)c(F)c1F	330 nM
O=C(Nc1nccs1)c1cc(-c2cccnc2)nc2ccc(Br)cc12	403 nM
O=C(Nc1cccc(CN2CCN(Cc3cccc(O)c3)CC2)c1)c1cc2ccccc2s1	1120 nM

— ChEMBL document CHEMBL1157539, “Thousands of chemical starting points for antimalarial lead identification” (Nature, 2010)
